{"source": "patent US7375079B2", "about": "(priority 1999, dated 2008)", "target": "BttxB (Clostridium botulinum, UniProt P10844)", "sequence (P10844 2-441 limits assumed)": "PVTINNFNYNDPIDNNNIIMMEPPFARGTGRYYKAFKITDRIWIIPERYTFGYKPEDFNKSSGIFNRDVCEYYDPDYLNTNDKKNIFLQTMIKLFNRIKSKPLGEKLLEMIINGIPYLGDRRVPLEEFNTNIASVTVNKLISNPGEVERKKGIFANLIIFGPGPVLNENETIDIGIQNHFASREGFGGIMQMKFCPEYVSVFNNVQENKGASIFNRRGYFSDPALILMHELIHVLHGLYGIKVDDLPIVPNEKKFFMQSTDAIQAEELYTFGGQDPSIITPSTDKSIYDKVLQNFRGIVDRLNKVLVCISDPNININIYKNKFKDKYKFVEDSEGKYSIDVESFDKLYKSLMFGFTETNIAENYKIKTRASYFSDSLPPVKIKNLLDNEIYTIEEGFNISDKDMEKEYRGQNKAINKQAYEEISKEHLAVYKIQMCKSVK", "assay_type": "biochemical", "data": [{"compound": "RPKPQQFFGLM [Substance P]", "values": [{"measurement": "inhibition of BttxB (in words)", "result": "inhibitor"}]}, {"compound": "CC(C)C[C@H](NC(=O)CNC(=O)[C@H](C)NC(=O)[C@H](CCCNC(=N)N)NC(=O)[C@H](CO)NC(=O)[C@H](CO)NC(=O)[C@H](CCCNC(=N)N)NC(=O)[C@@H](NC(=O)[C@H](CCCCN)NC(=O)[C@H](C)NC(=O)[C@H](CCCCN)NC(=O)[C@H](C)NC(=O)[C@H](CCCNC(=N)N)NC(=O)[C@@H](NC(=O)[C@H](CCCCN)NC(=O)CNC(=O)CNC(=O)[C@H](CCC(N)=O)NC(=O)[C@H](CCCCN)NC(=O)CNC(=O)[C@H](CCCNC(=N)N)NC(=O)CNC(=O)[C@H](C)N)C(C)C)[C@@H](C)O)C(=O)N[C@@H](CCC(N)=O)C(=O)N[C@@H](Cc1ccccc1)C(=O)N1CCC[C@H]1C(=O)N[C@H](C(=O)NCC(=O)N[C@@H](CCCNC(=N)N)C(=O)N[C@H](C(=O)N[C@@H](Cc1c[nH]cn1)C(=O)N[C@@H](CCCNC(=N)N)C(=O)N[C@@H](CC(C)C)C(=O)N[C@@H](CC(C)C)C(=O)N[C@@H](CCCNC(=N)N)C(=O)N[C@@H](CCCCN)C(=O)NCC(=O)N[C@@H](CC(N)=O)C(=O)N[C@@H](Cc1ccc(O)cc1)C(=O)O)C(C)C)C(C)C", "note": "[B-I]", "values": [{"measurement": "substrate of BttxB or not", "result": "not a substrate"}]}, {"compound": "AGRGKQGGKVRAKAKTRSSRAGLQFPVGRVHRLLRK [Peptide 36]", "values": [{"measurement": "effectiveness as inhibitor of BttxB activity relative to B-I", "result": "about 50%"}]}]}
